Results published in PubChem BioAssay (NCI).
Several values for one entry are separate records, joined by “and”; a condition that tells them apart may be missing. Identical values can stand only once.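 Each compound was tested at five concentrations against cells in 96-well plates for 48 hours. GI50 is the concentration that inhibits growth by half. TGI: total growth inhibition.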

Assays:
Assay in all cases: NCI tumour cell line growth inhibition, 48 h
SF-295 CNS = system: SF-295 CNS
LOX IMVI melanoma = system: LOX IMVI melanoma
U251 CNS = system: U251 CNS
OVCAR-3 ovarian = system: OVCAR-3 ovarian
HL-60(TB) leukemia = system: HL-60(TB) leukemia
HOP-92 NSCLC = system: HOP-92 NSCLC
UO-31 renal = system: UO-31 renal
MOLT-4 leukemia = system: MOLT-4 leukemia
SF-539 CNS = system: SF-539 CNS
NCI/ADR-RES ovarian = system: NCI/ADR-RES ovarian

Compound | TGI (SF-295 CNS) | TGI (LOX IMVI melanoma) | TGI (U251 CNS) | TGI (OVCAR-3 ovarian) | TGI (HL-60(TB) leukemia) | TGI (HOP-92 NSCLC) | TGI (UO-31 renal) | TGI (MOLT-4 leukemia) | TGI (SF-539 CNS) | GI50 (SF-295 CNS) | GI50 (U251 CNS) | GI50 (OVCAR-3 ovarian) | GI50 (HOP-92 NSCLC) | GI50 (UO-31 renal) | GI50 (SF-539 CNS) | TGI (NCI/ADR-RES ovarian) | GI50 (LOX IMVI melanoma) | GI50 (NCI/ADR-RES ovarian) | GI50 (MOLT-4 leukemia)
CC(=O)OCCOCNC(=S)N/N=C/c1ccc([N+](=O)[O-])s1 | > 100 µM | > 100 µM | > 100 µM | > 100 µM | 11.5 µM | > 100 µM | > 100 µM | > 100 µM | > 100 µM | – | – | – | – | – | – | – | – | – | –
Cc1c(Cl)cccc1NC(=O)c1cccc([N+](=O)[O-])c1O | 65 µM | 36.3 µM | 77.5 µM | 51.4 µM | > 49.4 µM | 7.88 µM | 40.5 µM | 46.7 µM | 40.6 µM | – | – | – | – | – | – | – | – | – | –
CCC[CH2][Sn]1([CH2]CCC)[O]CC(COc2c(Cl)cc(Cl)cc2Cl)[O]1 (centres undefined) | 3.37 µM | – | 2.18 µM | 3.03 µM | 0.673 µM | 3.06 µM | 3.21 µM | – | 3.43 µM | 1.9 µM | 0.845 µM | 1.65 µM | 1.55 µM | 1.68 µM | 1.64 µM | – | – | – | –
COc1cc(-c2nnc3n2NC=C(C(=O)O)S3)cc(OC)c1OC | > 100 µM | > 100 µM | > 100 µM | > 100 µM | > 73.4 µM | > 100 µM | > 100 µM | > 100 µM | > 61.4 µM | – | – | – | – | – | – | – | – | – | –
NC(=S)N/N=C1\CCCC\C1=C/c1ccccc1 | > 100 µM | > 100 µM | > 100 µM | > 100 µM | 4.74 µM | > 100 µM | > 100 µM | 84.4 µM | > 100 µM | – | – | – | – | – | – | – | – | – | –
Cc1ccc(C)c(N2C(=O)C(=O)C(c3nc4ccccc4o3)/C(=N\NC(=O)c3ccccc3O)C2=O)c1 (centres undefined) | > 100 µM | > 100 µM | > 100 µM | 63 µM | 31.2 µM | > 100 µM | 87.6 µM | 52.6 µM | 65.2 µM | – | – | – | – | – | – | – | – | – | –
COc1ccc(/C=C/c2cnccn2)cc1OC | > 10 µM | > 10 µM | > 10 µM | > 10 µM | – | > 10 µM | > 10 µM | – | > 10 µM | – | – | – | – | – | – | > 10 µM | – | – | –
Cc1ccc2[c](c1)[Sn]([c]1ccccc1)([c]1ccccc1)[c]1cc(C)ccc1N2C | > 100 µM | 29.6 µM | > 100 µM | > 100 µM | – | > 100 µM | > 100 µM | – | > 100 µM | > 100 µM | 87.5 µM | 37.9 µM | 5.58 µM and 15.7 µM | > 100 µM | > 100 µM | – | 13.2 µM | – | –
COc1cc2c3c(n(CCCN(C)CCO)c(=O)c2cc1OC)-c1cc2c(cc1C3=O)OCO2 | > 100 µM | 13.9 µM | > 100 µM | > 100 µM | – | 35.1 µM | > 57.9 µM | – | > 33.5 µM | 0.672 µM | 0.814 µM | 35.9 µM | 2.82 µM | 3.41 µM | 2.89 µM | 31.5 µM | 0.709 µM | 3.21 µM | < 0.013 µM
COc1cc2c(cc1OC)C1Cc3cc(OC)c(OC)cc3N1CC2 (centres undefined) | > 100 µM | – | > 100 µM | > 100 µM | 53.2 µM | > 100 µM | 86 µM | > 100 µM | – | – | – | – | – | – | – | – | – | – | –
